Data from ChEMBL document CHEMBL1127354, “Nonpeptidic inhibitors of human leukocyte elastase. 3. Design, synthesis, X-ray crystallographic analysis, and structure-activity relationships for a series of orally active 3-amino-6-phenylpyridin-2-one trifluoromethyl ketones” (J Med Chem, 1994).

Columns and labels:
physchem = settings: octanol/water
[1] = Time taken to reach maximum drug concentration in plasma of anesthetized rat at 25 mg/kg oral dose; type: ADME, organism-based; design: dose 25 mg/kg, route oral
[2] = Oral bioavailability was measured at concentration of 25 mg/kg oral dose; type: ADME, organism-based; settings: eutheria, in vivo
[3] = Maximum concentration of unchanged drug in plasma recorded in the period 0-6 hr of postdose in anesthetized rat at 25 mg/kg oral dose; type: ADME, organism-based; design: dose 25 mg/kg, route oral
[4] = Time taken to reach half of the concentration in blood plasma of anesthetized rat at 25 mg/kg oral dose; type: ADME, organism-based; design: dose 25 mg/kg, route oral
[5] = Partition coefficient (logP); type: physicochemical; settings: octanol/water
[6] = Oral bioavailability was measured at concentration of 40 mg/kg oral dose to hamster; type: ADME, organism-based, Cricetulus griseus; settings: chinese hamster, in vivo
[7] = Time taken to reach maximum drug concentration in plasma of hamster at 40 mg/kg oral dose; type: ADME, organism-based; design: dose 40 mg/kg, route oral; settings: cricetinae
[8] = Maximum concentration of unchanged drug in plasma recorded in the period 0-6 hr of postdose in hamster at 40 mg/kg oral dose; type: ADME, organism-based; design: dose 40 mg/kg, route oral; settings: cricetinae
[9] = Time taken to reach half of the concentration in blood plasma of hamster at 40 mg/kg oral dose; type: ADME, organism-based; design: dose 40 mg/kg, route oral; settings: cricetinae
[10] = Maximum concentration of unchanged drug in plasma recorded in the period 0-6 hr of postdose in anesthetized rat at 60 mg/kg oral dose; type: ADME, organism-based; design: dose 60 mg/kg, route oral
[11] = Time taken to reach maximum drug concentration in plasma of anesthetized rat at 60 mg/kg oral dose; type: ADME, organism-based; design: dose 60 mg/kg, route oral
[12] = Oral bioavailability was measured at concentration of 60 mg/kg oral dose; type: ADME, organism-based; settings: eutheria, in vivo
[13] = Time taken to reach half of the concentration in blood plasma of dog at 5 mg/kg oral dose; type: ADME, organism-based, Canis lupus familiaris; design: dose 5 mg/kg, route oral
[14] = Maximum concentration of unchanged drug in plasma recorded in the period 0-6 hr of postdose to hamster at 40 mg/kg oral dose; type: ADME, organism-based; design: dose 40 mg/kg, route oral; settings: cricetinae
[15] = Oral bioavailability was measured at concentration of 40 mg/kg oral dose; type: ADME, organism-based; settings: eutheria, in vivo
[16] = Oral bioavailability was measured at concentration of 5 mg/kg oral dose in dog; type: ADME, organism-based, Canis lupus familiaris; settings: in vivo
[17] = Maximum concentration of unchanged drug in plasma recorded in the period 0-6 hr of postdose in dog at 5 mg/kg oral dose; type: ADME, organism-based, Canis lupus familiaris; design: dose 5 mg/kg, route oral
[18] = Time taken to reach maximum drug concentration in plasma of dog at 5 mg/kg oral dose; type: ADME, organism-based, Canis lupus familiaris; design: dose 5 mg/kg, route oral

logP (physchem) | Compound | other results
2.38 | Cc1cc(COC(=O)Nc2ccc(-c3ccccc3)n(CC(=O)NC(C(=O)C(F)(F)F)C(C)C)c2=O)cc(C)n1 (centres undefined) | 
 | CC(C)C(NC(=O)Cn1c(-c2ccccc2)ccc(NC(=O)OCc2ccccc2)c1=O)C(=O)C(F)(F)F (centres undefined) | Tmax [1]: 1.4 h; bioavailability [2]: 59%; Cmax [3]: 1890 ng/mL; half-life [4]: 3 h
2.57 | CC(C)C(NC(=O)Cn1c(-c2ccccc2)ccc(NS(=O)(=O)NCc2ccccc2)c1=O)C(=O)C(F)(F)F (centres undefined) | 
2 | CC(C)C(NC(=O)Cn1c(-c2ccccc2)ccc(NC(=O)CN2CCOCC2)c1=O)C(=O)C(F)(F)F (centres undefined) | 
2.15 | CC(C)C(NC(=O)Cn1c(-c2ccccc2)ccc(NC(=O)NCc2ccccn2)c1=O)C(=O)C(F)(F)F (centres undefined) | 
2.53 | CC(C)C(NC(=O)Cn1c(-c2ccccc2)ccc(NS(=O)(=O)c2ccccc2)c1=O)C(=O)C(F)(F)F (centres undefined) | 
 | CC(C)C(NC(=O)Cn1c(-c2ccccc2)ccc(NC(=O)OCc2cccc(C(=O)O)c2)c1=O)C(=O)C(F)(F)F (centres undefined) | logP [5]: Not detected
0.35 | CC(C)C(NC(=O)Cn1c(-c2ccccc2)ccc(NC(=O)Cc2ccc(C(=O)O)cc2)c1=O)C(=O)C(F)(F)F (centres undefined) | 
1.74 | CC(C)C(NC(=O)Cn1c(-c2ccccc2)ccc(N)c1=O)C(=O)C(F)(F)F (centres undefined) | 
1.13 | CC(C)C(NC(=O)Cn1c(-c2ccccc2)ccc(NC(=O)NCc2cc[n+]([O-])cc2)c1=O)C(=O)C(F)(F)F (centres undefined) | 
2.37 | CCNc1ccc(-c2ccccc2)n(CC(=O)NC(C(=O)C(F)(F)F)C(C)C)c1=O (centres undefined) | 
1.91 | CC(C)C(NC(=O)Cn1c(-c2ccccc2)ccc(NC(=O)OCc2ccccn2)c1=O)C(=O)C(F)(F)F (centres undefined) | 
1.78 | CC(=O)Nc1ccc(-c2ccccc2)n(CC(=O)NC(C(=O)C(F)(F)F)C(C)C)c1=O (centres undefined) | bioavailability [6]: 35%; Tmax [7]: 0.25 h; Cmax [8]: 2780 ng/mL; half-life [9]: 1.9 h
1.14 | CC(C)C(NC(=O)Cn1c(-c2ccccc2)ccc(NC(=O)Cc2ccccc2C(=O)O)c1=O)C(=O)C(F)(F)F (centres undefined) | 
2.84 | CC(C)C(NC(=O)Cn1c(-c2ccccc2)ccc(NC(=O)NCc2cccnc2)c1=O)C(=O)C(F)(F)F (centres undefined) | 
3.86 | CC(C)C(NC(=O)Cn1c(-c2ccccc2)ccc(NC(=O)C(F)(F)F)c1=O)C(=O)C(F)(F)F (centres undefined) | 
1.17 | CC(C)C(NC(=O)Cn1c(-c2ccccc2)ccc(NS(N)(=O)=O)c1=O)C(=O)C(F)(F)F (centres undefined) | 
0.84 | CC(C)C(NC(=O)Cn1c(-c2ccccc2)ccc(NC(=O)OCc2ccc(C(=O)O)cc2)c1=O)C(=O)C(F)(F)F (centres undefined) | 
2.16 | CC(C)C(NC(=O)Cn1c(-c2ccccc2)ccc(NC(=O)NCc2ccncc2)c1=O)C(=O)C(F)(F)F (centres undefined) | Cmax [10]: 75 ng/mL; Tmax [11]: 3 h; bioavailability [12]: 2%
2.41 | CC(C)C(NC(=O)Cn1c(-c2ccccc2)ccc(NC(=O)OCc2ccncc2)c1=O)C(=O)C(F)(F)F (centres undefined) | half-life [13]: 0.8 h; Cmax [14]: 2770 ng/mL; Tmax [7]: 0.25 h; half-life [9]: 1.3 h; bioavailability [15]: 45%; bioavailability [16]: ~100%; Cmax [17]: 3150 ng/mL; Tmax [18]: 1 h
1.48 | CC(C)C(NC(=O)Cn1c(-c2ccccc2)ccc(NC(=O)NCc2ccc[n+]([O-])c2)c1=O)C(=O)C(F)(F)F (centres undefined) | 
1.84 | CC(C)C(NC(=O)Cn1c(-c2ccccc2)ccc(NC=O)c1=O)C(=O)C(F)(F)F (centres undefined) | 
2.5 | COc1ccc(S(=O)(=O)Nc2ccc(-c3ccccc3)n(CC(=O)NC(C(=O)C(F)(F)F)C(C)C)c2=O)cc1 (centres undefined) | 
 | CC(C)C(NC(=O)Cn1c(-c2ccccc2)ccc(NS(=O)(=O)Cc2ccccc2)c1=O)C(=O)C(F)(F)F (centres undefined) | logP [5]: Not detected
 | CC(=O)Nc1ccc(S(=O)(=O)Nc2ccc(-c3ccccc3)n(CC(=O)NC(C(=O)C(F)(F)F)C(C)C)c2=O)cc1 (centres undefined) | logP [5]: Not detected
1.77 | CC(C)C(NC(=O)Cn1c(-c2ccccc2)ccc(NS(C)(=O)=O)c1=O)C(=O)C(F)(F)F (centres undefined) | 
